Read-outs that look alike come from different tables or passages of the source.
Key:
[1] = rats, oral administration; ref Nan et al. [2016]; cited from earlier work
CYP3A4 = target: T1, CYP3A4 (Homo sapiens, UniProt P08684); test: Metabolic depletion of RA by rhCYP3A4; assay type: in vitro ADME
T1 construct: purchased Research Institute for Liver Disease (Shanghai) Co., Ltd
Protocol: (§1) The metabolic stability of RA was evaluated against five rhCYPs (1A2, 2C8, 2C9, 2D6 and 3A4). Incubation was taken place in 0.1 M sodium phosphate buffer (pH 7.4) containing 5 mM MgCl2, 1 mM NADPH, and 25 pM rhCYP enzyme protein at 37 °C in a total volume of 1 mL. After pre-incubated for 5 min, the reactions were started by the addition of RA methanol solution (final concentration of 2 µM). Aliquots of 50 µL incubation solution were collected from the reaction at 0, 5, 10, 20 and 30 min, and quenched with 50 µL ice-cold methanol (containing 0.5% formic acid) and 100 µL ice-cold acetonitrile containing IS (10 ng/mL). The heat-inactivated rhCYP3A4 were used as negative controls. All reactions were conducted in triplicate, followed by LC-MS/MS analysis. Results presented in percentage of drug remaining in incubation starting at 100% at time zero.

[2] = Bidirectional transport across MDCKII-Mock cell monolayers; assay type: in vitro ADME, canine; conditions: dog, MDCK, MDCKII-Mock, 20 min; for efflux ratio at 20 min: read-out: RE (efflux ratio)
Protocol: (§2) The qualified monolayers were used for transport studies. […] Each experiment was carried out in triplicate.

MDCKII-MDR1 cells = test: MTS cell-proliferation assay; assay type: cell-based, canine; conditions: 25 µM RA
Caco-2 cells = test: MTS cell-proliferation assay; assay type: cell-based, human; conditions: 25 µM RA
P-gp = test: Bidirectional transport across Caco-2 cell monolayer; assay type: in vitro ADME, human; conditions: human, pH 7.4, with verapamil 50 µM, Caco-2, 25 µM RA, + 50 µM verapamil
Protocol: as §2

CYP2D6 = target: T2, CYP2D6 (Homo sapiens, UniProt P10635); test: Metabolic depletion of RA by rhCYP2D6; assay type: in vitro ADME; conditions: rhCYP2D6 25 pM, RA 2 µM, 30 min
T2 construct: purchased Research Institute for Liver Disease (Shanghai) Co., Ltd
T2 sequence (P10635 whole entry): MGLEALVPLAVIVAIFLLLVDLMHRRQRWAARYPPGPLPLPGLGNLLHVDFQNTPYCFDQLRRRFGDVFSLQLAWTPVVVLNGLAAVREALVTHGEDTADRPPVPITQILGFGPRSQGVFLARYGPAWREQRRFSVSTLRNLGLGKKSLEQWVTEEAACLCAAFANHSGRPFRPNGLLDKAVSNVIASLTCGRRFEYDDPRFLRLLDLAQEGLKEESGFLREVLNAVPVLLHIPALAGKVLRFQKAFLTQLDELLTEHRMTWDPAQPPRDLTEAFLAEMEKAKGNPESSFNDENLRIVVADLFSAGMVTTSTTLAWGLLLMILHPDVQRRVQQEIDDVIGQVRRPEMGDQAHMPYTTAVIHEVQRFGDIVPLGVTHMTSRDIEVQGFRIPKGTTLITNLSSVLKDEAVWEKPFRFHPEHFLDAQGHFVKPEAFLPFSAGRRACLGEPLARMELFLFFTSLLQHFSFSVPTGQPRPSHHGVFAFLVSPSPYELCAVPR
Protocol: as §1

CYP2C8 = target: T3, CYP2C8 (Homo sapiens, UniProt P10632); test: Metabolic depletion of RA by rhCYP2C8; assay type: in vitro ADME; conditions: rhCYP2C8 25 pM, RA 2 µM, 30 min
T3 construct: purchased Research Institute for Liver Disease (Shanghai) Co., Ltd
T3 sequence (P10632 1-490): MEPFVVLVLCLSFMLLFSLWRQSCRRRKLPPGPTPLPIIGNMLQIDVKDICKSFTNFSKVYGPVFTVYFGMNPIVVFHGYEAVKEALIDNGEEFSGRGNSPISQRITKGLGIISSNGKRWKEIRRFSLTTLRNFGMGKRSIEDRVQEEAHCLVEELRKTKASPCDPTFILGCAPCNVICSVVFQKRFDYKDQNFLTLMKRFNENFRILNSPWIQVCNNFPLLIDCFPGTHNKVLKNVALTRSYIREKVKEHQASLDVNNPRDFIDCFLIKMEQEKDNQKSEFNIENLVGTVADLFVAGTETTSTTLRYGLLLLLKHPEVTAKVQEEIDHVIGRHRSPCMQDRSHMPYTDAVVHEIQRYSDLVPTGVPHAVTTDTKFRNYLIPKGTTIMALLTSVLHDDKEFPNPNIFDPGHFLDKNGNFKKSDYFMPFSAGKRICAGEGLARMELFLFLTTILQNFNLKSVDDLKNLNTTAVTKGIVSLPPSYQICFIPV
Protocol: as §1

[3] = pH 7.4, with verapamil 50 µM, + 50 µM verapamil

T1 sequence (P08684 whole entry): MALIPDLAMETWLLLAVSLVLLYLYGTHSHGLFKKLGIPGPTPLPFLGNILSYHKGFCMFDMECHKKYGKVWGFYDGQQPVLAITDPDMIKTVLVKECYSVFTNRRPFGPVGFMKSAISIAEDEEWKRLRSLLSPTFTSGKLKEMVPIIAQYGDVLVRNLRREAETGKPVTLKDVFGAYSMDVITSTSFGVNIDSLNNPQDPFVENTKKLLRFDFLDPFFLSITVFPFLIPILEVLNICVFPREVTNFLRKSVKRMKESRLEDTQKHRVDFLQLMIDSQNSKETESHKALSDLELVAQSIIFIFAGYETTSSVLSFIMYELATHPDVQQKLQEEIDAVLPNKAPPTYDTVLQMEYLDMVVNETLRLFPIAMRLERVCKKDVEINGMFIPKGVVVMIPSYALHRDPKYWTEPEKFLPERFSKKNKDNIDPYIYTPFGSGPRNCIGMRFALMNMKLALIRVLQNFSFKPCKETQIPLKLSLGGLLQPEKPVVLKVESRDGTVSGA

- degradation in negative control (CYP3A4; heat-inactivated rhCYP3A4, RA 2 µM): No obvious degradation
- RA converted (CYP3A4; rhCYP3A4 25 pM, RA 2 µM, 30 min): 88.2%
- Papp A→B at 20 min [2, 3]: 6.52 ± 0.864 ×10⁻⁶ cm/s
- Papp B→A at 20 min [2, 3]: 6.23 ± 0.895 ×10⁻⁶ cm/s
- efflux ratio at 20 min [2, 3]: 0.955
- Papp A→B at 20 min ([2]; pH 7.4, without verapamil): 6.07 ± 0.886 ×10⁻⁶ cm/s
- Papp B→A at 20 min ([2]; pH 7.4, without verapamil): 6.72 ± 2.03 ×10⁻⁶ cm/s
- efflux ratio at 20 min ([2]; pH 7.4, without verapamil): 1.11
- Papp A→B at 10 min, 25 µM (P-gp; 10 min): 1.07 ± 0.212 ×10⁻⁶ cm/s
- Papp B→A at 10 min, 25 µM (P-gp; 10 min): 2.73 ± 0.348 ×10⁻⁶ cm/s
- efflux ratio at 10 min, 25 µM (P-gp; 10 min, read-out: RE (efflux ratio)): 2.55
- Papp A→B at 20 min, 25 µM (P-gp; 20 min): 2.45 ± 0.707 ×10⁻⁶ cm/s
- Papp B→A at 20 min, 25 µM (P-gp; 20 min): 5.32 ± 0.306 ×10⁻⁶ cm/s
- efflux ratio at 20 min, 25 µM (P-gp; 20 min, read-out: RE (efflux ratio)): 2.17
- Papp A→B at 40 min, 25 µM (P-gp; 40 min): 4.69 ± 0.945 ×10⁻⁶ cm/s
- Papp B→A at 40 min, 25 µM (P-gp; 40 min): 5.68 ± 0.683 ×10⁻⁶ cm/s
- efflux ratio at 40 min, 25 µM (P-gp; 40 min, read-out: RE (efflux ratio)): 1.21
- Papp A→B at 60 min, 25 µM (P-gp; 60 min): 4.71 ± 0.524 ×10⁻⁶ cm/s
- Papp B→A at 60 min, 25 µM (P-gp; 60 min): 5.29 ± 0.438 ×10⁻⁶ cm/s
- efflux ratio at 60 min, 25 µM (P-gp; 60 min, read-out: RE (efflux ratio)): 1.12
- RA converted (CYP2D6): < 30%
- RA converted (CYP2C8): < 30%
Structure (SMILES): C[C@@H]1CC[C@]2(C(=O)O)CC[C@]3(C)C(=CC[C@@H]4[C@@]5(C)CC[C@H](O)[C@@](C)(CO)[C@@H]5CC[C@]43C)[C@@H]2[C@]1(C)O [RA, Rotundic acid]
- oral bioavailability [1]: 4.52%
- effect on cell proliferation (MTS) (MDCKII-MDR1 cells): did not influence the cell proliferation
- effect on cell proliferation (MTS) (Caco-2 cells): did not influence the cell proliferation

Reference: PMC7894426, “Influence of verapamil on the pharmacokinetics of rotundic acid in rats and its potential mechanism” (Pharmaceutical Biology, 2021)
